Data: patent publication US20230096028A1, “BICYCLIC HETEROCYCLYL COMPOUNDS AND USES THEREOF” (Revolution Medicines, Inc., priority 2019, published 2023)

System: NCI-H358 xenograft
Assay: In vivo tumor cell growth, NSCLC NCI-H358 xenograft model
Parameters: species or system female balb/c athymic nude mice
Procedure: Objective: To evaluate the efficacy of the SOS1 inhibitor Compound A alone and in combination with a KRAS G12C inhibitor MRTX1257 following oral administration in the human non-small cell lung cancer (NSCLC) NCI-H358 xenograft model in nude mice.
Methods: The effect of a SOS1 inhibitor of the present invention (Compound A) on tumor cell growth in vivo was evaluated in the NSCLC NCI-H358 xenograft model using female balb/c athymic nude mice (6-8 weeks old). Mice were implanted with H358 tumor cells in 50% matrigel (5^e6 cells/mouse) subcutaneously in the flank. Once tumors reached an average size of ˜200 mm^3, mice were randomized to treatment groups and administration of test article or vehicle (2% HPMC, 0.1% tween in 50 mM sodium citrate buffer pH 4). Body weight and tumor volume (using digital calipers) were measured twice a week until study endpoints. Compounds were administered by oral gavage daily.

Question: What does the source list for C=CC(=O)N1CCN(c2nc(OC[C@@H]3CCCN3C)nc3c2CCN(c2cccc4cccc(C)c24)C3)C[C@@H]1CC#N [MRTX1257]?
Answer: tumor growth inhibition, TGI (10 mg/kg, repeated daily dosing, single agent): 76%; tumor response (50 mg/kg, H358 model): achieved regressions
